Results on three compounds are retold here after US20230303564A1, “PYRIMIDINE RING COMPOUND” (MEDSHINE DISCOVERY INC., priority 2020, published 2023).

Each structure is given as a SMILES string.

One data set concerns the target CDK1/CyclinB1 (Homo sapiens (Human), UniProt P06493). As to the kind of experiment: CDK1/CyclinB1 enzyme activity test (ADP-Glo). The class given is biochemical. The settings on record: 25 μM ATP, 25° C. 120 minutes, read-out: CDK1/Cyclin B IC50. As to the method:
CDK1/CyclinB1 Enzyme Reaction System
(§1) Enzymes, substrates, ATP, and inhibitors were diluted by kinase buffer in the kit. The compounds to be tested were diluted 5-fold with a multi-channel pipette to the eighth concentration, that is, from 50 μM to 0.65 nM, the concentration of DMSO was 5%, and a double-hole experiment was set up. 1 μL of each concentration gradient of inhibitors, 2 μL of CDK1/CyclinB1 enzyme (12.5 ng), 2 μL mixture of substrate and ATP (25 μM adenosine triphosphate, 0.2 μg/μL substrate) were added to the microplates, and the final concentration gradient of the compound was 10 μM to 0.13 nM. The reaction system was reacted at 25° C. for 120 minutes. After the reaction, 5 μL of ADP-Glo reagent was added to each well, the reaction was carried out at 25° C. for 40 minutes, after the reaction was completed, 10 μL of kinase detection reagent was added to each well, the reaction was carried out at 25° C. for 30 minutes, the multiple label analyzer was used to read the chemiluminescence with an integration time of 0.5 seconds.
(§2) The equation (Sample−Min)/(Max−Min)*100% was used to convert the raw data into inhibition rate, and the value of IC50 can be obtained by curve fitting with four parameters (obtained by log (inhibitor) vs. response-Variable slope mode in GraphPad Prism). The enzymatic inhibitory activity of the compounds of the present disclosure on CDK1/CyclinB1, CDK2/CyclinA2, CDK2/CyclinE1, CDK4/CyclinD1, CDK6/CyclinD1, CDK7/CyclinH/MAT1, CDK9/CyclinT1 was provided in Table 1.
For orientation: In ADP-Glo the light output rises with the ADP produced.

The next data set deals with CDK2/CyclinE1 (Homo sapiens (Human), UniProt P24941). As to the kind of experiment: CDK2/CyclinE1 enzyme activity test (ADP-Glo). The class given is biochemical. As to conditions: 150 μM ATP, 25° C. 60 minutes, read-out: CDK2/Cyclin E1 IC50. As to the method:
CDK2/CyclinE1 Enzyme Reaction System
as §1, with “CDK2/CyclinE1” for “CDK1/CyclinB1”, “(2” for “(12.5”, “(150” for “(25”, “ATP, 0.1” for “adenosine triphosphate, 0.2”, “60” for “120”
as §2

The target of a further data set is CDK4/CyclinD1 (Homo sapiens (Human), UniProt P11802). The data set is described as follows: CDK4/CyclinD1 enzyme activity test (LANCE Ultra TR-FRET). As to conditions: 350 μM ATP, 25° C. 120 minutes, read-out: CDK4/Cyclin D1 IC50. The class given is biochemical. As to the method:
CDK4/CyclinD1 Enzyme Reaction System
Preparation of Kinase Buffer:
The composition of the buffer: 50 mM of hydroxyethylpiperazine ethanesulfonic acid solution at pH 7.5, 1 mM of ethylenediaminetetraacetic acid, 10 mM of magnesium chloride, 0.01% Brij-35, and 2 mM of dithiothreitol.
Enzymes, substrate LANCE Ultra ULight™-4E-BP-1(Thr37146) Peptide, ATP, and inhibitors were diluted by kinase buffer.
The compounds to be tested were diluted 5-fold with a multi-channel pipette to the eighth concentration, that is, from 40 μM to 0.512 nM, the concentration of DMSO was 4%, and a double-hole experiment was set up. […] The reaction system was reacted at 25° C. for 120 minutes. After the reaction, 5 μL mixture of EDTA and 2× LANCE™ Detection Buffer (1:1) were added to each well, the reaction was carried out at 25° C. for 5 minutes, after the reaction was completed, 5 μL of LANCE Ultra Eu-anti-P-4E-BP1(Thr37MS) (4 nM) was added to each well, the reaction was carried out at 25° C. for 60 minutes, the reaction signal was detected by Nivo instrument according to the principle of time-resolved fluorescence resonance energy transfer.
as §2
For orientation: Time-resolved FRET reads energy transfer from a long-lived donor to a nearby acceptor.

Data set [1] is described as follows: Pharmacokinetic evaluation in CD-1 (ICR) mice, oral. The class given is in vivo, mouse. As to conditions: male CD-1 (ICR) mice, oral 5 mg/kg, plasma. The method, then: Experimental Scheme of Compounds 18, 19 and 20
The healthy adult male CD-1 (ICR) mice used in this study were purchased from Pinghu Weitong Lihua Experimental Animal Technology Co., Ltd.
0.300 mL of the stock solution was measured and vortexed for 2 minutes to obtain a homogeneous suspension at a concentration of 1 mg/mL, and the administration vehicle was 1% HPMC in water.
Two male CD-1 (ICR) mice were given 5 mg/kg of the compound to be tested by intragastric administration.
The blood of two animals was collected at each time point by serial blood collection. 30 μL of whole blood was collected respectively at 0.25, 0.5, 1, 2, 4, 8, and 24 hours after administration. The whole blood was placed in an anticoagulant tube, centrifuged at 3200 g for 10 minutes at 4° C., plasma was prepared and stored at −60° C. or lower. The drug concentration in plasma was determined by LC/MS-MS.

Chain of CDK4/CyclinD1 (P11802 whole entry): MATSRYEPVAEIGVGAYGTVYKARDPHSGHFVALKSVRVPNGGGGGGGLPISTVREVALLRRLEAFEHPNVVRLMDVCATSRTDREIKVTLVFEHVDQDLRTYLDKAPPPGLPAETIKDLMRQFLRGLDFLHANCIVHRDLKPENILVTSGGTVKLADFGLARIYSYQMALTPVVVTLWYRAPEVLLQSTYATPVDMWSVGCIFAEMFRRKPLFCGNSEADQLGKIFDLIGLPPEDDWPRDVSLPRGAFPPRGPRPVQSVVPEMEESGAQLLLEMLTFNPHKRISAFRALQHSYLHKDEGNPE
Chain of CDK4/CyclinD1 (P24385 whole entry partner): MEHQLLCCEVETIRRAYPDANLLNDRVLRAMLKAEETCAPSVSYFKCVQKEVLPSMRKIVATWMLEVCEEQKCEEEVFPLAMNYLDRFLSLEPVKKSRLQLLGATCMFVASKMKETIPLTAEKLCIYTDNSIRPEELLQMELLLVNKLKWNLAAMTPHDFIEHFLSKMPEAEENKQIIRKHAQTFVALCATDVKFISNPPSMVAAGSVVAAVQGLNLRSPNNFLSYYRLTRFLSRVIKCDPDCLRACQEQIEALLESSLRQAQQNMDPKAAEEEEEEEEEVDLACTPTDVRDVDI
Chain of CDK1/CyclinB1 (P06493 whole entry): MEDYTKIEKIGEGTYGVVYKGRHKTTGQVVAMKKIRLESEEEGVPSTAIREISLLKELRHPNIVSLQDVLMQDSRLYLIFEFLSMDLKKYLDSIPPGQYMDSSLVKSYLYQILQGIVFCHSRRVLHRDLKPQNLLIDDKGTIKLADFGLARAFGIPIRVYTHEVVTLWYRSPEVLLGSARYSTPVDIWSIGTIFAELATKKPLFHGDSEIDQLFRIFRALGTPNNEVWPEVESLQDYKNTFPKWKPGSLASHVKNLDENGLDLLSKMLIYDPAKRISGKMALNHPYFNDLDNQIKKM
Chain of CDK1/CyclinB1 (P14635 whole entry partner): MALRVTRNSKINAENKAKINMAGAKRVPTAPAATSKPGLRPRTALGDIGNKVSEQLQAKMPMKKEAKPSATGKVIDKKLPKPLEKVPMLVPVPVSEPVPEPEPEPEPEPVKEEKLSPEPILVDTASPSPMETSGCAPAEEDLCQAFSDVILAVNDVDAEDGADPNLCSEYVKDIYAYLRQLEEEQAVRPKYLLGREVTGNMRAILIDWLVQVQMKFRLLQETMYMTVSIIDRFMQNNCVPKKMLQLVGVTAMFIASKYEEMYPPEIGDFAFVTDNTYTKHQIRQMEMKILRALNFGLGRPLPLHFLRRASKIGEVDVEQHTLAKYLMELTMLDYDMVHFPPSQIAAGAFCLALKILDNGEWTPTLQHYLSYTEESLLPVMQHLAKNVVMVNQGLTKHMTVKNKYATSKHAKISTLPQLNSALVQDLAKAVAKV

Take `CS(=O)(=O)N1CCC(Nc2ncc3cc(C(F)F)nc(N[C@@H]4CCCC4(F)F)c3n2)CC1` (single isomer, unassigned) [Compound 22]: the IC50 at CDK1/CyclinB1 stood at 8.86 nM; at CDK2/CyclinE1 it was 3.52 nM; on CDK4/CyclinD1 it was 0.5 nM.
Turning to `Cc1cn(C)nc1Nc1nc(C(F)F)cc2cnc(NC3CCN(S(C)(=O)=O)CC3)nc12` [Compound 19], the IC50 on CDK2/CyclinE1 stood at 4.73 nM; on CDK4/CyclinD1, 4.26 nM. Besides, the “Oral exposure AUC0-t” value in data set [1] worked out at 3.143 µM·h.
The like results for `Cn1cc(Cl)c(Nc2nc(C(F)F)cc3cnc(NC4CCN(S(C)(=O)=O)CC4)nc23)n1` [Compound 20] were, in that order, 1.33 nM, 0.82 nM and 2.746 µM·h.
